For 11 molecules, IC50 and inhibition results are on record in ChEMBL document CHEMBL3593199, “Guaianolides and a seco-Eudesmane from the Resinous Exudates of Cushion Bush (Leucophyta brownii) and Evaluation of Their Cytostatic and Anti-inflammatory Activity” (J Nat Prod, 2015).

Assay [1] relates to RAW264.7. Description: Anti-inflammatory activity in mouse RAW264.7 cells assessed as inhibition of LPS-induced thromboxane B2 production incubated for 48 hrs by ELISA method. Format: functional, cell-based. To be noted: RAW264.7, 48 h. For orientation: ELISA stands for enzyme-linked immunosorbent assay.
Assay [2] relates to RAW264.7. Description: Anti-inflammatory activity in mouse RAW264.7 cells assessed as inhibition of LPS-induced prostaglandin E2 production incubated for 48 hrs by ELISA method. It counts as functional, cell-based. To be noted: RAW264.7, 48 h.
The test system of assay [3] is MCF7. Description: Cytostatic activity against human MCF7 cells incubated for 6 days by alamar blue reagent based resazurin metabolism assay. It counts as functional, cell-based. Particulars: MCF7, 144 h. Background: Resazurin is reduced to fluorescent resorufin, in cell work by metabolically active cells.
The subject of assay [4] is HT-29. Description: Cytostatic activity against human HT-29 cells incubated for 72 hrs by alamar blue reagent based resazurin metabolism assay. It counts as functional, cell-based. To be noted: HT-29, 72 h.
In assay [5] the test system is RAW264.7. Description: Anti-inflammatory activity in mouse RAW264.7 cells assessed as inhibition of LPS-induced thromboxane B2 production at 10 uM incubated for 48 hrs by ELISA method. It counts as functional. To be noted: RAW264.7, 48 h.
Assay [6] has as its system RAW264.7. Briefly: Anti-inflammatory activity in mouse RAW264.7 cells assessed as inhibition of LPS-induced prostaglandin E2 production at 10 uM incubated for 48 hrs by ELISA method. It counts as functional. Particulars: RAW264.7, 48 h.

A value given as a limit tells only on which side of the number the result lay.

In the case of `C=C1C(=O)O[C@@H]2C[C@](C)(O)C3=CC[C@@](C)(O)[C@@H]3C[C@H]12`, the IC50 in assay [1] stood at 37.5 µM; in assay [2], 21.2 µM.
Turning to `C=C1C(=O)O[C@@H]2C[C@H](C)C3=CC[C@@](C)(O)[C@@H]3C[C@H]12`, the IC50 in assay [3] was 24.2 µM; in assay [4], 28.2 µM; in assay [1], 17.7 µM; in assay [2], 6.5 µM.
Taken in the same sequence, the figures for `C=C1C(=O)O[C@@H]2C[C@H](C)[C@]34O[C@H]3C[C@@](C)(O)[C@@H]4C[C@H]12` were 12.1 µM, 18.6 µM, 11.7 µM and 3 µM.
Take `C=C1C(=O)O[C@@H]2C[C@H](C)[C@]34O[C@H]3C[C@@](C)(OC(C)=O)[C@@H]4C[C@H]12`: the IC50 in assay [3] came to 6.9 µM; in assay [4], 14.1 µM; in assay [1], 6.5 µM; in assay [2], 0.7 µM.
On to `C=C1C(=O)O[C@@H]2C[C@H](C)[C@]3(O)[C@@H](C[C@H]12)[C@](C)(OC(C)=O)C[C@@H]3O`, for which the IC50 worked out at 27.2 µM in assay [3], 29.3 µM in assay [4], 34.6 µM in assay [1] and 10.5 µM in assay [2].
For the molecule `C=C1C(=O)O[C@@H]2C[C@H](C)[C@]34O[C@](C)(C[C@@H]3OC(C)=O)[C@@H]4C[C@H]12`, the IC50 in assay [3] is above 65 µM; in assay [4], above 65 µM; in assay [1], 38.6 µM; in assay [2], 16.3 µM.
Take `C=C1C(=O)O[C@@H]2CC(C)=C3CC[C@@](C)(O)[C@@H]3C[C@H]12`: the IC50 was 13.7 µM in assay [3], 18.1 µM in assay [4], 12.9 µM in assay [1] and 3.2 µM in assay [2].
As to `C=C1C(=O)O[C@@H]2CC(C)=C3CC[C@@](C)(OC(C)=O)[C@@H]3C[C@H]12`, the IC50 in assay [3] was 8 µM; in assay [4], 4.8 µM; in assay [1], 2.6 µM; in assay [2], 3.5 µM.
In the same order, the values of `C=C(CO)[C@@H]1CCC(C)=C([C@H](C)CCC(=O)O)C1` are above 79 µM, above 79 µM, above 79 µM and above 79 µM.
`C[C@]12CCC(=O)C=C1CC[C@@H]1[C@@H]2[C@@H](O)C[C@@]2(C)[C@H]1CC[C@]2(O)C(=O)CO` [HYDROCORTISONE]: the results for the inhibition at 10 µM in assay [5] and in assay [6] were 42% and 21%, respectively.
Consider `C=C1C(=O)O[C@@H]2C[C@H](C)C(CCC(C)=O)=CC[C@H]12` [TOMENTOSIN], for which the IC50 worked out at 26.6 µM in assay [3], 56.5 µM in assay [4], 15.7 µM in assay [1] and 7.3 µM in assay [2].

In general, IC50 refers to the concentration that gives 50% inhibition. By inhibition is commonly meant the drop in the measured response relative to a control, in per cent.
